Key:
[1] = Plasma concentration in Sprague-Dawley rat at 1 mg/kg, sc administered as single dose measured after 1 hr post dose by LC-MS/MS analysis; type: ADME, organism-based
[2] = Plasma concentration in Sprague-Dawley rat at 15 mg/kg/day, sc administered via infusion measured after 72 hrs post dose by LC-MS/MS analysis; type: ADME, organism-based
[3] = system: Rattus norvegicus; test: Toxicity in Sprague-Dawley rat assessed as reduction in spontaneous locomotive activity at 30 mg/kg, sc after 30 mins; type: organism-based; design: scale not given: the % may be the effect or the level left; conditions: in vivo, 0.5 h
[4] = biological target: CYP2C9 (Homo sapiens, UniProt P11712); test: Inhibition of human CYP2C9 at 10 uM; type: ADME
[5] = Plasma concentration in Sprague-Dawley rat at 10 mg/kg, sc administered as single dose measured after 1 hr post dose by LC-MS/MS analysis; type: ADME, organism-based
[6] = organism: Rattus norvegicus; test: Drug metabolism in Sprague-Dawley rat assessed as (1S,2S,4S,5R,6S)-di-tert-butyl 4-amino-2-(tert-butoxycarbonylamino)bicyclo[3.1.0]hexane-2,6-dicarboxylate formation measured over 24 hrs; type: ADME
[7] = Plasma concentration in Sprague-Dawley rat at 15 mg/kg/day, sc administered via infusion measured after 12 hrs post dose by LC-MS/MS analysis; type: ADME, organism-based
[8] = Cmax in Sprague-Dawley rat at 3 mg/kg, sc measured over 8 hrs by LC-MS/MS analysis; type: ADME, organism-based; design: dose 3 mg/kg, route subcutaneous; conditions: in vivo
[9] = Plasma concentration in Sprague-Dawley rat at 5 mg/kg/day, sc administered via infusion measured after 48 hrs post dose by LC-MS/MS analysis; type: ADME, organism-based
[10] = biological target: CYP3A4 (Homo sapiens, UniProt P08684); test: Inhibition of human CYP3A4 at 10 uM; type: ADME
[11] = Drug metabolism in rat liver microsomes at 4 uM; type: ADME, microsome; conditions: read-out: Drug metabolism
[12] = Plasma concentration in Sprague-Dawley rat at 5 mg/kg/day, sc administered via infusion measured after 12 hrs post dose by LC-MS/MS analysis; type: ADME, organism-based
[13] = AUC in Sprague-Dawley rat at 1 mg/kg, iv measured over 8 hrs by LC-MS/MS analysis; type: ADME, organism-based; design: time < 8 hr, dose 1 mg/kg, route intravenous; conditions: in vivo
[14] = Plasma concentration in Sprague-Dawley rat at 1.5 mg/kg/day, sc administered via infusion measured after 6 hrs post dose by LC-MS/MS analysis; type: ADME, organism-based
[15] = Drug level in Sprague-Dawley rat CSF at 1 mg/kg, sc administered as single dose measured after 1 hr post dose by LC-MS/MS analysis; type: ADME, organism-based, Cerebrospinal fluid; conditions: read-out: Drug uptake
[16] = Bioavailability in Sprague-Dawley rat at 3 mg/kg, sc measured over 8 hrs by LC-MS/MS analysis; type: ADME, organism-based; conditions: in vivo
[17] = Drug metabolism in human liver microsomes at 4 uM; type: ADME, microsome; conditions: read-out: Drug metabolism
[18] = Plasma concentration in Sprague-Dawley rat at 0.5 mg/kg/day, sc administered via infusion measured after 6 hrs post dose by LC-MS/MS analysis; type: ADME, organism-based
[19] = Plasma concentration in Sprague-Dawley rat at 5 mg/kg/day, sc administered via infusion measured after 72 hrs post dose by LC-MS/MS analysis; type: ADME, organism-based
[20] = Plasma concentration in Sprague-Dawley rat at 0.5 mg/kg/day, sc administered via infusion measured after 72 hrs post dose by LC-MS/MS analysis; type: ADME, organism-based
[21] = Plasma concentration in Sprague-Dawley rat at 5 mg/kg/day, sc administered via infusion measured after 6 hrs post dose by LC-MS/MS analysis; type: ADME, organism-based
[22] = biological target: T1, Metabotropic glutamate receptor 5 (Homo sapiens, UniProt P41594); test: Antagonist activity at recombinant human mGlu5 receptor expressed in hamster AV12 cells co-expressing rat EAAT1/Galpha15 assessed as inhibition of glutamate induced increase in Ca2+ flux after 2.5 mins by Fluo-3 AM dye-based FLIPR assay; type: functional, cell-based
[23] = Volume of distribution at steady state in Sprague-Dawley rat at 1 mg/kg, iv measured over 8 hrs by LC-MS/MS analysis; type: ADME, organism-based; conditions: in vivo, read-out: Vdss
[24] = biological target: T2, Metabotropic glutamate receptor 2 (Homo sapiens, UniProt Q14416); test: Displacement of [3H]-LY459477 from recombinant human mGlu2 receptor expressed in HEK cell membranes after 90 mins by liquid scintillation counting
[25] = Tmax in Sprague-Dawley rat at 3 mg/kg, sc measured over 8 hrs by LC-MS/MS analysis; type: ADME, organism-based; conditions: in vivo
[26] = Plasma concentration in Sprague-Dawley rat at 1.5 mg/kg/day, sc administered via infusion measured after 24 hrs post dose by LC-MS/MS analysis; type: ADME, organism-based
[27] = Half life in Sprague-Dawley rat at 3 mg/kg, sc measured over 8 hrs by LC-MS/MS analysis; type: ADME, organism-based; conditions: in vivo
[28] = biological target: T2, Metabotropic glutamate receptor 2; test: Agonist activity at human mGlu2 receptor expressed in HEK cells assessed as inhibition of forskolin-stimulated cAMP formation after 20 mins by HTRF assay; type: functional, cell-based
[29] = Plasma concentration in Sprague-Dawley rat at 15 mg/kg/day, sc administered via infusion measured after 6 hrs post dose by LC-MS/MS analysis; type: ADME, organism-based
[30] = biological target: T1, Metabotropic glutamate receptor 5; test: Agonist activity at recombinant human mGlu5 receptor expressed in hamster AV12 cells co-expressing rat EAAT1/Galpha15 assessed as induction of increase in Ca2+ flux after 2.5 mins by Fluo-3 AM dye-based FLIPR assay; type: functional, cell-based
[31] = biological target: Metabotropic glutamate receptor 8 (Homo sapiens, UniProt O00222); test: Agonist activity at recombinant human mGlu8 receptor expressed in hamster AV12 cells co-expressing rat EAAT1/Galpha15 assessed as induction of increase in Ca2+ flux after 2.5 mins by Fluo-3 AM dye-based FLIPR assay; type: functional, cell-based
[32] = Fraction unbound in rat brain; type: ADME, tissue-based
[33] = Drug metabolism in mouse liver microsomes at 4 uM; type: ADME, microsome; conditions: read-out: Drug metabolism
[34] = Drug level in Sprague-Dawley rat CSF at 15 mg/kg/day, sc administered via infusion measured after 72 hrs post dose by LC-MS/MS analysis; type: ADME, organism-based, Cerebrospinal fluid; conditions: read-out: Drug uptake
[35] = biological target: Group II metabotropic glutamate receptor (mGlu2/mGlu3) (Rattus norvegicus) (UniProt P31421+P31422); conditions: Sprague-Dawley
Description: Agonist activity at mGlu2/3 receptor in Sprague-Dawley rat forebrain assessed as inhibition of spontaneous Ca2+ oscillations in cortical neurons after 300 secs by FLIPR assay

[36] = AUC in Sprague-Dawley rat at 3 mg/kg, sc measured over 8 hrs by LC-MS/MS analysis; type: ADME, organism-based; design: dose 3 mg/kg, time < 8 hr, route subcutaneous; conditions: in vivo
[37] = Drug level in Sprague-Dawley rat CSF at 10 mg/kg, sc administered as single dose measured after 1 hr post dose by LC-MS/MS analysis; type: ADME, organism-based, Cerebrospinal fluid; conditions: read-out: Drug uptake
[38] = Plasma concentration in Sprague-Dawley rat at 15 mg/kg/day, sc administered via infusion measured after 48 hrs post dose by LC-MS/MS analysis; type: ADME, organism-based
[39] = Plasma concentration in Sprague-Dawley rat at 0.5 mg/kg/day, sc administered via infusion measured after 24 hrs post dose by LC-MS/MS analysis; type: ADME, organism-based
[40] = Half life in Sprague-Dawley rat at 1 mg/kg, iv measured over 8 hrs by LC-MS/MS analysis; type: ADME, organism-based; conditions: in vivo
[41] = Plasma concentration in Sprague-Dawley rat at 0.1 mg/kg, sc administered as single dose measured after 1 hr post dose by LC-MS/MS analysis; type: ADME, organism-based

Sequence of Group II metabotropic glutamate receptor (mGlu2/mGlu3) (Rattus norvegicus) (P31421 whole entry, looked up): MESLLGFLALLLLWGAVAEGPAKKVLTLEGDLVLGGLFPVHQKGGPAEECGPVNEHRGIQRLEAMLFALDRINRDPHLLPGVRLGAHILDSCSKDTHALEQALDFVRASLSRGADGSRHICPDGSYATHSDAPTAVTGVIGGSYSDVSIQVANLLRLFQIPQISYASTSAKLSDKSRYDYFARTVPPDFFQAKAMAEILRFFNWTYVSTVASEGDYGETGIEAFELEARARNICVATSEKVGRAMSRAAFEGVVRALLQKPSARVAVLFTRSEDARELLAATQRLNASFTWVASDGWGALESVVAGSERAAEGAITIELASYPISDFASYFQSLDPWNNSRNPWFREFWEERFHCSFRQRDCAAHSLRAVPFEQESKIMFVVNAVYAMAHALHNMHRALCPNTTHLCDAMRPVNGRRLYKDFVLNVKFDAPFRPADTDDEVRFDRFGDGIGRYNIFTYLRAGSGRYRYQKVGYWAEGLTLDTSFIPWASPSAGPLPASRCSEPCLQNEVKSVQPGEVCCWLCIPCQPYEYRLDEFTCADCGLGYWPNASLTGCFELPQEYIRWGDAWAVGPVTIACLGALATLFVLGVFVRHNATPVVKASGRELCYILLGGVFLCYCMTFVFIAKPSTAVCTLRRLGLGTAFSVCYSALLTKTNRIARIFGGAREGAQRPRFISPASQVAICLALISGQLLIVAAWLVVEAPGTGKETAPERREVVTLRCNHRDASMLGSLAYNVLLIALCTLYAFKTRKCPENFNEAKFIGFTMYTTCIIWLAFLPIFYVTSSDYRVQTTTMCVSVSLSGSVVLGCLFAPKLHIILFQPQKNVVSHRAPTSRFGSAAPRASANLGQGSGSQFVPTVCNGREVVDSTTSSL
Sequence of Group II metabotropic glutamate receptor (mGlu2/mGlu3) (Rattus norvegicus) (P31422 whole entry, looked up): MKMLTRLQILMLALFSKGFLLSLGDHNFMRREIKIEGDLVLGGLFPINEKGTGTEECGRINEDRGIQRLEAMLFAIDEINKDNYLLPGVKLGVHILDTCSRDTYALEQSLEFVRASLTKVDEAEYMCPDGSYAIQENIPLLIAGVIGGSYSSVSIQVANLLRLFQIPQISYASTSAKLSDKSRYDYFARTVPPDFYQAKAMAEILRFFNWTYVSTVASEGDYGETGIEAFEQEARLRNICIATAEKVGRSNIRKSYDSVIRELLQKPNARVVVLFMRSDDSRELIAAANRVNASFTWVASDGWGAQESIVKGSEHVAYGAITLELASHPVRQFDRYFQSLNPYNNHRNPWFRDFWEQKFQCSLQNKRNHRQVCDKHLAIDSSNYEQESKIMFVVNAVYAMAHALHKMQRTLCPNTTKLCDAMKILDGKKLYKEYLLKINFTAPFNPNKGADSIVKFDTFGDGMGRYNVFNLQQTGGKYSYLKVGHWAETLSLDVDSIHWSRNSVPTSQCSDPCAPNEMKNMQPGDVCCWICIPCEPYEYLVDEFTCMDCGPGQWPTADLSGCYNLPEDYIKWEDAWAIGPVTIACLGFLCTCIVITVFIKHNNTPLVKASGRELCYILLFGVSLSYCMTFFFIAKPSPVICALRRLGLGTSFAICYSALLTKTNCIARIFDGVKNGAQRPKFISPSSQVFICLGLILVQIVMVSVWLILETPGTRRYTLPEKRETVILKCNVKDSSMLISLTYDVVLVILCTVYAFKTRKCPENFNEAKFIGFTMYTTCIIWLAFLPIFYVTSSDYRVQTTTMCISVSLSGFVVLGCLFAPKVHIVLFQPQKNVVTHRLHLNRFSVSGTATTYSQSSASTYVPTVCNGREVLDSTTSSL
T1 sequence (P41594 whole entry): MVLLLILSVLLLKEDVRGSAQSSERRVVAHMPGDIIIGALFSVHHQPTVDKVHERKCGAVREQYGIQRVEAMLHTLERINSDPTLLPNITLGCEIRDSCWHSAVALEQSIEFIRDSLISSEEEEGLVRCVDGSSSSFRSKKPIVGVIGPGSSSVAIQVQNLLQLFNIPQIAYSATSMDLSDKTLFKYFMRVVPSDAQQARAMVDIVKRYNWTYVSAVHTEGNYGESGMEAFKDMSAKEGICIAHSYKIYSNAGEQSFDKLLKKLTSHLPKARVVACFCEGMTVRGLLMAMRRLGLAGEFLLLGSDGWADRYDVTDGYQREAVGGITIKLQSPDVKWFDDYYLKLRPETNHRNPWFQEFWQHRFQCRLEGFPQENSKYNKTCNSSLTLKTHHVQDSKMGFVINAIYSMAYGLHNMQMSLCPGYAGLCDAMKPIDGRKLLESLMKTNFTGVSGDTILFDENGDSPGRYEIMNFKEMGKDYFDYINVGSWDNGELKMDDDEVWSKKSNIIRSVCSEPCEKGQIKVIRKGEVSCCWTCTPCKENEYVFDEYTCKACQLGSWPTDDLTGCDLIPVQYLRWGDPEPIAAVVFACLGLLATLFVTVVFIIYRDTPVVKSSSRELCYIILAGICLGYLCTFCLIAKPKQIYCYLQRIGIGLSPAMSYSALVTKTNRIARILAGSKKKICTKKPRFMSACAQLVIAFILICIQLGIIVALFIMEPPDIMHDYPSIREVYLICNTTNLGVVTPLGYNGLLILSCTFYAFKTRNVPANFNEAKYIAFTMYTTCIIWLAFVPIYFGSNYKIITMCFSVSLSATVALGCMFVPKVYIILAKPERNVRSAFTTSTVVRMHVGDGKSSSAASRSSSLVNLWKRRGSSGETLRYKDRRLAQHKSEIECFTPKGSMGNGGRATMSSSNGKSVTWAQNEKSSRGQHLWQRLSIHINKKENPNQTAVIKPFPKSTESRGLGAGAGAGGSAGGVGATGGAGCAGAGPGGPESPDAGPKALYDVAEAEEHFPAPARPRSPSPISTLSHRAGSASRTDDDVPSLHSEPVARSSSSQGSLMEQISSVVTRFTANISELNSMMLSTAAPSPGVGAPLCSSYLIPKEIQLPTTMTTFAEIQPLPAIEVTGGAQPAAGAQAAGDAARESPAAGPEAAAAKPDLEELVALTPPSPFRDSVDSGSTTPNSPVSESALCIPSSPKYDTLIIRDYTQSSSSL
T2 sequence (Q14416 whole entry): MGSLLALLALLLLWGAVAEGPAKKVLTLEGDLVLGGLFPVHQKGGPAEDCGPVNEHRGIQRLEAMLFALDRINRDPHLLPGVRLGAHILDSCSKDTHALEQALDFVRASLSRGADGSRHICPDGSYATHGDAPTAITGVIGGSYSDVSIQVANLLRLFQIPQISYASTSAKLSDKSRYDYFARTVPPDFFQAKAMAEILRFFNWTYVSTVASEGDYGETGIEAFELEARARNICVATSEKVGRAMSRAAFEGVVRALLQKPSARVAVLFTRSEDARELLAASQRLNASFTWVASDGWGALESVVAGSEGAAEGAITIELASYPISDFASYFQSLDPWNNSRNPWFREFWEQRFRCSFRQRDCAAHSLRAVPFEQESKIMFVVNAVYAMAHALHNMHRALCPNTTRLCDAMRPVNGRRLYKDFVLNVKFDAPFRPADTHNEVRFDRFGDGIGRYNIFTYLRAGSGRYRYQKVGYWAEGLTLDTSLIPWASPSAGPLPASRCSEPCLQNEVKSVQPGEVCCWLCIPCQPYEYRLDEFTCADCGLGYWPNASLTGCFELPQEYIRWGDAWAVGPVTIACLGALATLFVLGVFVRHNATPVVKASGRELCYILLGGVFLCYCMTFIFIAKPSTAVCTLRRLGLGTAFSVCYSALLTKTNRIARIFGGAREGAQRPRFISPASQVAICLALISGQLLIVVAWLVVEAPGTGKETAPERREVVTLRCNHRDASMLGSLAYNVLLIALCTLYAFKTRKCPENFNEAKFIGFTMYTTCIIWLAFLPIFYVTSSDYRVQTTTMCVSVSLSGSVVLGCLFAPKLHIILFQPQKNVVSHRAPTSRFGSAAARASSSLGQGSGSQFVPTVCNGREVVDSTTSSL
Sequence of Metabotropic glutamate receptor 8 (O00222 whole entry): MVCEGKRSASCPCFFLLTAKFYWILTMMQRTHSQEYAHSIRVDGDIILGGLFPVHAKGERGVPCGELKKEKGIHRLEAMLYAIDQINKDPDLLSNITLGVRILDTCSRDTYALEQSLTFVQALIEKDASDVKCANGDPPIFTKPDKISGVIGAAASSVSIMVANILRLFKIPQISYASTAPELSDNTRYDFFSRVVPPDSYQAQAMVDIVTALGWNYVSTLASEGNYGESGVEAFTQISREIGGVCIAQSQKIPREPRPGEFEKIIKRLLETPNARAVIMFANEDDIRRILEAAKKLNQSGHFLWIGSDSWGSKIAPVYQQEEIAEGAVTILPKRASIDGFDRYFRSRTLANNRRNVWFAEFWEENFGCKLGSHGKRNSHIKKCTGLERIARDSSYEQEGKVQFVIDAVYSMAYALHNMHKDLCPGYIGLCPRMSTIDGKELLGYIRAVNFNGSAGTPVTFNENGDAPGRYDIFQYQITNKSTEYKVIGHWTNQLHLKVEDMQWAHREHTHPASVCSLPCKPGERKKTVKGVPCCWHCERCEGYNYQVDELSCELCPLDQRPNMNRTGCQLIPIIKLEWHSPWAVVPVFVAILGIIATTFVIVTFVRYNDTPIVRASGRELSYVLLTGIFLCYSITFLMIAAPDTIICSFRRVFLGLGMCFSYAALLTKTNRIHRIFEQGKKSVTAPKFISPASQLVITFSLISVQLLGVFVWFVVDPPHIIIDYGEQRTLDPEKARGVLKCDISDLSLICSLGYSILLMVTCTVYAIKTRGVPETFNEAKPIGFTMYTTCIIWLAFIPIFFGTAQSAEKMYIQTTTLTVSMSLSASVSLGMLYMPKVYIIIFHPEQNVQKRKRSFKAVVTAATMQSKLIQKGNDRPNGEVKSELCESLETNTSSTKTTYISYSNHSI

## COc1cccc(C(=O)N[C@H]2C[C@@](N)(C(=O)O)[C@@H]3[C@@H](C(=O)O)[C@@H]32)c1
[1]
  concentration at 1 h: 1510 to 1580 nM
[2]
  concentration at 72 h: 3210 nM
[3]
  Activity: 32%
[4]
  inhibition at 10 µM: 3.5%
[5]
  concentration at 1 h: 25900 nM
[6]
  Drug metabolism: < 2.5 nM
[7]
  concentration at 12 h: 3070 nM
[8]
  Cmax: 6780 nM
[9]
  concentration at 48 h: 871 nM
[10]
  inhibition at 10 µM: 3.6%
[11]
  metabolised at 4 µM: 23%
[12]
  concentration at 12 h: 1260 nM
[13]
  AUC at 8 h: 2.75 µM·h
[14]
  concentration at 6 h: 427 nM
[15]
  concentration at 1 h: 12.5 to 22.5 nM
[16]
  bioavailability: 121%
[17]
  metabolised at 4 µM: 12.3%
[18]
  concentration at 6 h: 156 nM
[19]
  concentration at 72 h: 1310 nM
[20]
  concentration at 72 h: 91.2 nM
[21]
  concentration at 6 h: 1280 nM
[22]
  IC50: > 12500 nM
[23]
  Vd: 1.17 L/kg
[24]
  Ki: 412 nM
[25]
  Tmax: 0.44 h
[26]
  concentration at 24 h: 403 nM
[27]
  half-life: 2.9 h
[28]
  EC50: 47.5 nM
[29]
  concentration at 6 h: 3840 nM
[30]
  EC50: > 25000 nM
[31]
  EC50: > 25000 nM
[32]
  fraction unbound: 1
[33]
  metabolised at 4 µM: 11.5%
[34]
  concentration at 72 h: 86.7 nM
[35]
  EC50H: 0.44 nM
  EC50L: 43.6 nM
[36]
  AUC at 8 h: 9.88 µM·h
[37]
  concentration at 1 h: 249 nM
[38]
  concentration at 48 h: 2130 nM
[39]
  concentration at 24 h: 124 nM
[40]
  half-life: 3.1 h
[41]
  concentration at 1 h: 286 nM

Reference: ChEMBL document CHEMBL4020826 (J Med Chem, 2018)
